Tests used:
Type in all cases: functional
[1] = molecular target: Leukotriene B4 receptor 1 (Homo sapiens) (UniProt Q15722); assay: Antagonistic activity against Leukotriene B4 receptor by using [3H]LTB4 as a radioligand at a concentration of 10e-5 M
[2] = molecular target: Leukotriene B4 receptor 1 (Homo sapiens) (UniProt Q15722); assay: Antagonistic activity against Leukotriene B4 receptor by using [3H]LTB4 as a radioligand at a concentration of 10e-6 M
[3] = molecular target: Leukotriene B4 receptor 1 (Homo sapiens) (UniProt Q15722); assay: Antagonistic activity against Leukotriene B4 receptor by using [3H]LTB4 as a radioligand at a concentration of 10e-7 M

Sequence of Leukotriene B4 receptor 1 (Homo sapiens) (Q15722 whole entry): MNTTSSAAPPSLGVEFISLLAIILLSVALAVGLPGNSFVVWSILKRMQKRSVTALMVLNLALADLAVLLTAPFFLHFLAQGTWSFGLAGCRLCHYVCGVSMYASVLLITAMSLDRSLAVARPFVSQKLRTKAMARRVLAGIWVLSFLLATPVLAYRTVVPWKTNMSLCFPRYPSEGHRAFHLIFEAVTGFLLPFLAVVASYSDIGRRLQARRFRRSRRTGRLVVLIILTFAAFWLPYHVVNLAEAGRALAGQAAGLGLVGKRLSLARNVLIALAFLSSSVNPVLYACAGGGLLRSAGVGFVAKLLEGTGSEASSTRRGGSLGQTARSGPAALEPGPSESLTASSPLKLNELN

inhibition [1] [%] | inhibition [2] [%] | inhibition [3] [%] | Compound
98 | 71 |  | CCCCCCCCCCOc1ccc(C(=O)c2cccc(-c3nn[nH]n3)c2)cc1CCC(=O)O
13 | 0 |  | CCCCCCCCCCOc1ccc(C(=O)c2cccc([N+](=O)[O-])c2)cc1CCC(=O)O
92 | 61 |  | CCCCCCCCCCOc1ccc(/C(=N\O)c2cccc(C(=O)O)c2)cc1CCC(=O)O
100 | 79 |  | CCCCCCCCCCOc1ccc(C(=O)c2ccccc2CC(=O)O)cc1CCC(=O)O
76 | 35 |  | CCCCCCCCCCOc1ccc(C(=O)c2ccc(C(=O)O)cc2)cc1CC(=O)O
22 | 9 |  | CCCCCCCCCCOc1ccc(C(=O)c2cccc(S(=O)(=O)NC)c2)cc1CCC(=O)O
78 | 26 |  | CCCCCCCCCCOc1ccc(C(OCC)c2cccc(C(=O)O)c2)cc1CCC(=O)O (stereo unspecified)
99 | 68 |  | CCCCCCCCCCOc1ccc(C(=O)c2cccc(Cc3nnn[nH]3)c2)cc1CCC(=O)O
95 | 53 |  | CCCCCCCCCCOc1ccc(C(=O)Cc2ccccc2C(=O)O)cc1CCC(=O)O
96 | 55 |  | CCCCCCCCCCOc1ccc(C(=O)c2cccc(C(=O)O)c2)cc1CCc1nnn[nH]1
95 | 60 |  | CCCCCCCCCCOc1ccc(C(=O)c2cccc(C(=O)O)c2)cc1CCC(=O)O
24 | 1 |  | CCCCCCCCCCOc1ccc(C(=O)c2ccccc2)cc1CC(=O)O
88 | 41 |  | CCCCCCCCCCOc1ccc(Oc2cccc(C(=O)O)c2)cc1CCC(=O)O
73 | 27 |  | CCCCCCCCCCOc1ccc(C(=O)c2cccc(C(=O)O)c2)cc1CC(=O)O
93 | 28 |  | CCCCCCCCCCOc1ccc(C(=O)c2cccc(-c3nn[nH]n3)c2)cc1CC(=O)O
71 | 39 |  | C=C(c1cccc(C(=O)O)c1)c1ccc(OCCCCCCCCCC)c(CCC(=O)O)c1
83 | 34 |  | CCCCCCCCCCOc1ccc(C(=O)c2cccc(C(=O)O)c2)cc1Cc1nnn[nH]1
89 | 52 |  | CCCCCCCCCCOc1ccc(C(=O)c2cccc(C(=O)O)c2)cc1CCCC(=O)O
0 | 1 |  | CCCCCCCCCCOc1ccc(C(=O)c2cccc(-c3nn[nH]n3)c2)cc1CCC(=O)OCC
91 | 55 |  | CCCCCCCCCCOc1ccc(C(O)c2cccc(C(=O)O)c2)cc1CCC(=O)O (stereo unspecified)
88 | 41 |  | CCCCCCCCCCOc1ccc(Cc2cccc(C(=O)O)c2)cc1CCC(=O)O
0 | 0 |  | CCCCCCCCCCOc1ccc(C(=O)c2cccc(C(=O)NC)c2)cc1CCC(=O)NC
76 | 21 |  | CCCCCCCCCCOc1ccc(C(=O)c2cccc(C(=O)O)c2)cc1C(=O)O
60 | 7 |  | CCCCCCCCCCOc1ccc(C(=O)c2ccccc2C(=O)O)cc1CC(=O)O

Continued, compound first:

Compound | inhibition [1] [%] | inhibition [2] [%] | inhibition [3] [%]
O=C(O)CCc1cc(S(=O)(=O)c2cccc(C(=O)O)c2)ccc1OCCCCCCc1ccccc1 | 100 | 79 | 24
CCCCCCCCCCOc1ccc(C(=O)c2cccc(C(=O)OCC)c2)cc1CC(=O)OCC | 0 | 0 | 
O=C(O)CCc1cc(Sc2cccc(C(=O)O)c2)ccc1OCCCCCCc1ccccc1 | 102 | 67 | 29
CCCCCCCCCCOc1ccc(C(O)c2cccc(C(=O)O)c2)cc1CC(=O)O (stereo unspecified) | 75 | 28 | 
CCCCCCCCCCOc1ccc(C(=O)c2cccc(-c3nnn[nH]3)c2)cc1Cc1nnn[nH]1 | 81 | 20 | 
O=C(O)CCc1cc(NC(=O)c2cccc(C(=O)O)c2)ccc1OCCCCCCc1ccccc1 | 98 | 73 | 
O=C(O)CCc1cccc(NC(=O)c2cccc(C(=O)O)c2)c1OCCCCCCc1ccccc1 | 24 | 0 | 
CCCCCCCCCCOc1ccc(C(=O)c2cccc(C(=O)O)c2)c(CC(=O)O)c1 | 74 | 23 | 
CCCCCCCCCCOc1ccc(C(O)c2ccc(C(=O)O)cc2)cc1CC(=O)O (stereo unspecified) | 59 | 15 | 
CCCCCCCCCCOc1ccc(C(=O)CCCC(=O)O)cc1CC(=O)O | 39 | 2 | 
CCCCCCCCCCOc1ccc(C(=O)c2cccc(C#N)c2)cc1CC#N | 3 | 0 | 
O=C(O)CCc1cc(C(=O)c2cccc(C(=O)O)c2)ccc1OCCCCCCc1ccccc1 | 100 | 85 | 
O=C(O)CCc1cc([S+]([O-])c2cccc(C(=O)O)c2)ccc1OCCCCCCc1ccccc1 (stereo unspecified) | 79 | 71 | 37
CCCCCCCCCCOc1ccc(C(=O)c2cccc(C(=O)OCC)c2)cc1Cc1nnn[nH]1 | 0 | 14 | 
O=C(O)CCc1cc(/C(=N\O)c2cccc(C(=O)O)c2)ccc1OCCCCCCc1ccccc1 | 96 | 84 | 30
CCCCCCCCCCOc1ccc(C(=O)c2cccc(C(=O)O)c2)c(O)c1 | 19 | 13 | 
CCCCCCCCCCOc1ccc(C(O)c2cccc(C(=O)O)c2)cc1 (stereo unspecified) | 0 | 3 | 
